Data on 1 compound can be found in patent US9615580B2, “Fused heterocyclic compound and use thereof for pest control” (Sumitomo Chemical Company, Limited, priority 2012, dated 2017).

Holding throughout (type): in vivo
Assay [1] relates to Aphis gossypii. The assay is described as follows: Test Example 1: foliar spray on cucumber seedling inoculated with Aphis gossypii. The conditions noted are these: 144 h, 500 ppm active ingredient, 20 ml sprayed on cucumber seedling, 6 days after spraying. As for the experimental part: On the other hand, on a cucumber seedling (the first true leaf stage) planted in a plastic cup was inoculated with about 30 Aphis gossypii (whole stage), and leaving it for a day. Twenty (20) ml of each test solution was sprayed on the seedling. Six (6) days after spraying, the number of the surviving Aphis gossypii parasitized on the leaves of the cucumber was examined, and a control value was calculated according to the following equation: Controlling value (%)={1−(Cb×Tai)/(Cai×Tb)}×100 wherein the symbols in the above equation represent as follows: Cb: the number of insects in a non-treated section before treatment Cai: the number of insects in a non-treated section on observation Tb: the number of insects in a treated section before treatment Tai: the number of insects in a […] the non-treated section represents a section where the test diluted solution prepared by diluting the formulation without the present compound as in Formulation Example 5 with the same amount of water as in the treated-section was used.

For assay [2], the system named is Nilaparvata lugens. Description: Test Example 3: spray on rice seedling, Nilaparvata lugens larvae released. As to conditions: 144 h, 10 ml sprayed on rice seedling, third-fourth instar larvae, after 6 days. As for the experimental part: On the other hand, a rice seedling (the second leaf stage) planted in a polyethylene cup was sprayed with 10 ml of each test solution. After air-drying, 20 third-fourth instar larvae of Nilaparvata lugens were released, and kept in the greenhouse of 25° C. After 6 days, the number of insect of living Nilaparvata lugens parasitized on the rice was examined, and a control value was calculated according to the following equation: Controlling value (%)={1−(Cb×Tai)/(Cai×Tb)}×100 wherein the symbols in the above equation represent as follows: Cb: the number of insects in a non-treated section before treatment Cai: the number of insects in a non-treated section on observation Tb: the number of insects in a treated section before treatment Tai: the number of insects in a […] the non-treated section represents a section where the test diluted solution prepared by diluting the formulation without the present compound as in Formulation Example 5 with the same amount of water as in the treated-section was used.

Assay [3] relates to Nilaparvata lugens. The assay is described as follows: Test Example 4: soil drench of rice seedling, Nilaparvata lugens larvae released. The conditions noted are these: 144 h, 5 ml drench at foot of rice seedling, larvae released after 7 days, counted 6 days later. As for the experimental part: On the other hand, a rice seedling (2 weeks after sowing, the second leaf stage) planted in a plastic cup was drenched at its foot with 5 ml of each test solution, and kept in a greenhouse of 25° C. for 7 days. Twenty (20) third-fourth instar larvae of Nilaparvata lugens were released, and further kept in the greenhouse for 6 days, then the number of insect of living Nilaparvata lugens parasitized on the rice was examined, and a control value was calculated according to the following equation: Controlling value (%)={1−(Cb×Tai)/(Cai×Tb)}×100 wherein the symbols in the above equation represent as follows: Cb: the number of insects in a non-treated section before treatment Cai: the number of insects in a non-treated section on observation Tb: the number of insects in a treated section before treatment Tai: the number of insects in a […] the non-treated section represents a section where the test diluted solution prepared by diluting the formulation without the present compound as in Formulation Example 5 with the same amount of water as in the treated-section was used.

Assay [4] concerns Plutella xylostella. Description: Test Example 6: spray on cabbage, Plutella xylostella larvae released. As to conditions: 120 h, 20 mL/cup sprayed on cabbage, second instar larvae, 25° C., 5 days, read-out: death rate. As for the experimental part:
Each test solution was prepared by diluting a formulation containing any of the present compounds 1-4, 1-5, 1-6, 1-8, 1-9, 1-10, 1-16, 1-18, 1-19, 1-20, 1-29, 1-46, 1-48, 1-49, 1-50, 1-63 and 1-76 as obtained in Formulation Example 5, with water so as to give 500 ppm of the concentration of the active ingredient.
On the other hand, Cabbage (the third leaf stage) planted in a polyethylene cup was sprayed with 20 mL/cup of each test solution. After the test solution was dried, the aerial part was cut off, and then placed in a 50 mL volume cup. Five (5) second instar larvae of Plutella xylostella were released into the cup, and the cup was sealed with a lid. After the cup was kept at 25° C. for 5 days, the number of living insects was counted. A death rate was calculated according to the following equation: Death rate (%)=(Number of dead insects/Number of tested insects)×100

For assay [5], the system named is Musca domestica. Description: Test Example 8: treated filter paper with sucrose bait, Musca domestica. As to conditions: 500 ppm, 0.7 ml on filter paper, female imagoes, after 24 hours. As for the experimental part:
Each test solution was prepared by diluting a formulation containing any of the present compounds 1-4, 1-6, 1-8, 1-9, 1-10, 1-63 and 1-95 as obtained in Formulation Example 5, with water so as to give 500 ppm of the concentration of the active ingredient.
A filter paper having a diameter of 5.5 cm was spread on the bottom of a polyethylene cup having a diameter of 5.5 cm and each test solution (0.7 ml) was added dropwise onto the filter paper. As a bait sucrose (30 mg) was uniformly placed on the filter paper. Into the polyethylene cup, 10 female imagoes of Musca domestica were released and the cup was sealed with a lid. After 24 hours, the number of surviving Musca domestica was examined and the death rate of the pest was calculated according to the following equation: Death rate (%)=(Number of dead insects/Number of tested insects)×100

The test system of assay [6] is Blattalla germanica. Description: Test Example 9: treated filter paper with sucrose bait, Blattalla germanica. The conditions noted are these: 500 ppm, 0.7 ml on filter paper, male imagoes, after 6 hours. As for the experimental part: Each test solution was prepared by diluting a formulation containing any of the present compounds 1-9 and 1-19 as obtained in Formulation Example 5, with water so as to give 500 ppm of the concentration of the active ingredient.
A filter paper having a diameter of 5.5 cm was spread on the bottom of a polyethylene cup having a diameter of 5.5 cm and each test solution (0.7 ml) was added dropwise onto the filter paper. Sucrose (30 mg) as a bait was uniformly placed on the filter paper. Into the polyethylene cup, 2 male imagoes of Blattalla germanica were released and the cup was sealed with a lid. After 6 hours, the number of surviving Blattalla germanica was examined and the death rate of the pest was calculated according to the following equation: Death rate (%)=(Number of dead insects/Number of tested insects)×100

The test system of assay [7] is Laodelphax striatella. Description: Test Example 12: spray on rice seedling, Laodelphax striatella larvae released. As to conditions: 50 ppm, 10 ml sprayed on rice seedling, third instar larvae, after 5 days; method equation is a death rate. As for the experimental part:
(§1) Any of the present compounds 1-6, 1-8, 1-9 and 1-10 (10 mg) was dissolved in a mixed solution (0.1 ml) of xylene, DMF and Sorpol® 3005X (manufactured by Toho Chemical Industry Co., Ltd.) in a ratio of 4:4:1 to obtain a formulation. Each formulation was diluted with water so as to give 50 ppm of the concentration of the active ingredient.
On the other hand, a rice seedling (2.5 leaf stage) planted in a polyethylene cup was sprayed with 10 ml of each test solution. After air-drying the seedling, 10 third instar larvae of Laodelphax striatella were released, and kept in the greenhouse of 25° C. After 5 days, the number of living insects was counted. A death rate was calculated according to the following equation: Death rate (%)={10−(Number of living insects after 5 days)/10}×100

For assay [8], the system named is Sogatella furcifera. The assay is described as follows: Test Example 13: spray on rice seedling, Sogatella furcifera larvae released. The conditions noted are these: 50 ppm, 10 ml sprayed on rice seedling, third instar larvae, after 5 days; method equation is a death rate. As for the experimental part: as §1
On the other hand, a rice seedling (2.5 leaf stage) planted in a polyethylene cup was sprayed with 10 ml of each test solution. After air-drying the seedling, 10 third instar larvae of Sogatella furcifera were released, and kept in the greenhouse of 25° C. After 5 days, the number of living insects was counted. A death rate was calculated according to the following equation: Death rate (%)={10−(Number of living insects after 5 days)/10}×100 As a result, in the treated-section using each test solution containing each of the present compounds 1-6, 1-8, 1-9 and 1-10, the control value was 100%.

Consider `CCS(=O)(=O)c1cccnc1-c1nc2cc([S+]([O-])C(F)(F)F)ccc2o1` (centres unmarked) [present compound 1-9, 2-(3-ethylsulfonylpyridin-2-yl)-5-(trifluoromethylsulfinyl)benzoxazole], for which the pest or weed control at 500 ppm is at least 90% in assay [1], at least 90% in assay [2], at least 90% in assay [3] and at least 80% in assay [4]. Besides, the death rate in assay [5] and in assay [6] was 100% each time. The control value in assay [7] and in assay [8] was 100% throughout.
